Values after ≈ are worked out from the molar mass of the structure shown. Read-outs that look alike come from different tables or passages of the source.
Columns and labels:
P. aeruginosa ATCC 27853 = experiment: MIC / antibiotic potentiation assay, wild-type strain; conditions: for Antibiotic MIC in Presence of TXA09155 at a Concentration of 3.13: TXA09155 3.13 μg/mL; for Antibiotic MIC in Presence of TXA09155 at a Concentration of 25: TXA09155 25 μg/mL; for antibiotic potentiated by TXA09155 up to x-fold: TXA09155 25 to 3.13 µg/mL; for Emax: ratio between MIC without EPI and MIC in the presence of a maximal potentiating concentration of EPI (TXA09155)
[1] = test system: P. aeruginosa mutants EPIR1S, EPIR9S, EPIR20L, EPIR43; experiment: MIC of antimicrobials in TXA09155-resistant mutants; assay type: cell-based, Pseudomonas aeruginosa
Procedure: All resistant colonies were verified by determining the MIC to TXA09155. […] This two-component system regulates the expression of more than 100 genes in P. aeruginosa, including genes that code for efflux components (mexX), and plays a role in the resistance to cationic antimicrobial peptides and aminoglycoside antibiotics.
(§1) MIC assays were performed as described previously.

P. aeruginosa K767 (WT) = experiment: MIC assay, strain K767; assay type: cell-based, Pseudomonas aeruginosa; conditions: antibiotic alone; for MIC: Pseudomonas aeruginosa, read-out: MICs K767 (WT)
Description: (§2) P. aeruginosa ATCC 27853 was obtained from the American Type Culture Collection (ATCC; Manassas, VA, USA). P. aeruginosa multidrug-resistant isolates were obtained from the CDC and FDA Antibiotic Resistance Isolate Bank (Atlanta, GA, USA). P. aeruginosa DA7232 (gyrA-T83I, parC-S80L) was a kind gift from Prof. Dan I. Andersson, Uppsala University, Uppsala, Sweden, and has been characterized elsewhere. P. aeruginosa strains K767 (WT), K1455 (mexAB-oprM overexpressed), K2415 (mexXY-oprM overexpressed), and K3698 (oprM∆) were obtained from Prof. Keith Poole, Queen’s University, Kingston, Ontario, Canada and have been characterized elsewhere. Bacterial cells were grown in cation-adjusted Mueller Hinton (CAMH) media, brain heart infusion broth (BHI), or tryptic soy agar (TSA) plates were all obtained from Becton, Dickinson, and Company (BD; Franklin Lakes, NJ, USA). Aztreonam, ceftazidime, moxifloxacin, levofloxacin, minocycline, tigecycline, chloramphenicol, nitrocefin, and imipenem were purchased from TOKU-E (Bellingham, WA, USA). Azithromycin was purchased from Tokyo Chemical Industry (Portland, OR, USA). Cotrimoxazole was purchased from Toronto Research Chemicals (Toronto, ON, Canada). Doxycycline and polymyxin B were purchased from Sigma-Aldrich (St. Louis, MO, USA). Ethidium bromide (EtBr) and glucose were purchased from VWR (Radnor, PA, USA). MC-04,124 and TXA01182 were synthesized at TAXIS Pharmaceuticals. Carbonyl cyanide 3-chlorophenylhydrazone (CCCP) was purchased from Enzo Life Sciences (Farmingdale, NY, USA). DiOC2 (3) and propidium iodide were obtained from Thermo Fisher Scientific (Waltham, MA, USA).
as §1

[2] = test system: P. aeruginosa K1455 (mexAB-oprM overexpressed); experiment: microbe, parasite or virus in culture; assay type: cell-based, Pseudomonas aeruginosa; conditions: for MIC: Pseudomonas aeruginosa, read-out: MICs K1455 (↑mexAB-oprM); for MIC Ratios K1455 (↑mexAB-oprM)/K3698 (∆oprM): effect of pump deletion
Description: as §2, §1

[3] = test system: P. aeruginosa K3698 (∆oprM); experiment: MIC / potentiation assay, strain K3698; assay type: cell-based, Pseudomonas aeruginosa; conditions: for MIC: Pseudomonas aeruginosa, read-out: MICs K3698 (∆oprM)
Description: as §2, with “Aztreonam, ceftazidime, moxifloxacin, levofloxacin, minocycline, tigecycline, chloramphenicol, nitrocefin, and imipenem were purchased from TOKU-E (Bellingham, WA, USA).” left out, “Cotrimoxazole was purchased from Toronto Research Chemicals (Toronto, ON, Canada). Doxycycline and polymyxin B were purchased from Sigma-Aldrich (St. Louis, MO, USA).” left out
as §1

[4] = test system: P. aeruginosa K2415 (mexXY-oprM overexpressed); experiment: MIC / potentiation assay, strain K2415; assay type: cell-based, Pseudomonas aeruginosa; conditions: for MIC: Pseudomonas aeruginosa, read-out: MICs K2415 (↑mexXY-oprM)
Description: as §2, §1

[5] = Pseudomonas aeruginosa, strain EPIR1S (phoQ-L175R)
[6] = Pseudomonas aeruginosa, strain EPIR9S (phoQ-L175R)
[7] = Pseudomonas aeruginosa, strain EPIR20L (phoQ-H248D)
[8] = Pseudomonas aeruginosa, ATCC27853, read-out: Antibiotic MIC in Presence of TXA09155 at a Concentration of 0
[9] = Pseudomonas aeruginosa, ATCC27853, read-out: MICs, Lack of EPI

## polymyxin B [PMB]
P. aeruginosa ATCC 27853; ATCC 27853, parent strain
  MIC: 2 µg/mL
[1]; strain EPIR1S (phoQ-L175R)
  MIC: 4 µg/mL
[1]; strain EPIR9S (phoQ-L175R)
  MIC: 2 µg/mL
[1]; strain EPIR20L (phoQ-H248D)
  MIC: 4 µg/mL
[1]; strain EPIR43 (ompH-Q127X)
  MIC: 4 µg/mL

## C[C@@H](O)[C@H]1C(=O)N2C(C(=O)O)=C(S[C@@H]3CN[C@H](C(=O)N(C)C)C3)[C@H](C)[C@H]12 [MEM, meropenem]
[1]; [5]
  MIC: 2 µg/mL
[1]; [6]
  MIC: 1 µg/mL
[1]; [7]
  MIC: 2 µg/mL

## C[C@@H](O)[C@H]1C(=O)N2C(C(=O)O)=C(SCCN=CN)C[C@H]12 [Imipenem]
P. aeruginosa ATCC 27853; [8]
  MIC: 2 µg/mL
P. aeruginosa ATCC 27853
  Antibiotic MIC in Presence of TXA09155 at a Concentration of 3.13: 2 µg/mL
  Antibiotic MIC in Presence of TXA09155 at a Concentration of 25: 2 µg/mL
  antibiotic potentiated by TXA09155 up to x-fold: not potentiated
  Antibiotic MIC in Presence of TXA09155 at a Concentration of 12.5: 2 µg/mL
  Emax: 1
P. aeruginosa K767 (WT)
  MIC: 2 µg/mL (≈ 6.68 µM)
[2]
  MIC: 1 µg/mL (≈ 3.34 µM)
  MIC Ratios K1455 (↑mexAB-oprM) ± TXA09155: 1
[2]; antibiotic alone
  MIC Ratios K1455 (↑mexAB-oprM)/K3698 (∆oprM): 1
[3]
  MIC: 2 µg/mL
  MIC Ratios K3698 (∆oprM) ± TXA09155: 1
[4]
  MIC: 1 µg/mL
  MIC Ratios K2415 (↑mexXY-oprM) ± TXA09155: 1

## CN(C)c1ccc(O)c2c1C[C@H]1C[C@H]3[C@H](N(C)C)C(O)=C(C(N)=O)C(=O)[C@@]3(O)C(O)=C1C2=O [Minocycline]
P. aeruginosa ATCC 27853; [8]
  MIC: 32 µg/mL
P. aeruginosa ATCC 27853; [9]
  MIC: 32 µg/mL
P. aeruginosa ATCC 27853
  Antibiotic MIC in Presence of TXA09155 at a Concentration of 3.13: 16 µg/mL
  Antibiotic MIC in Presence of TXA09155 at a Concentration of 25: 0.125 µg/mL
  Antibiotic MIC in Presence of TXA09155 at a Concentration of 12.5: 0.25 µg/mL
  Emax: 256
P. aeruginosa K767 (WT)
  MIC: 64 µg/mL (≈ 140 µM)
[2]
  MIC: > 256 µg/mL
[3]
  MIC: 1 µg/mL
[4]
  MIC: 32 µg/mL

## CO/N=C(\C(=O)N[C@@H]1C(=O)N2C(C(=O)[O-])=C(C[n+]3cccc4c3CCC4)CS[C@H]12)c1csc(N)n1 [Cefpirome]
P. aeruginosa ATCC 27853; [8]
  MIC: 8 µg/mL
P. aeruginosa ATCC 27853
  Antibiotic MIC in Presence of TXA09155 at a Concentration of 3.13: 4 µg/mL
  Antibiotic MIC in Presence of TXA09155 at a Concentration of 25: 0.5 µg/mL
  antibiotic potentiated by TXA09155 up to x-fold: up to 16 fold
  Antibiotic MIC in Presence of TXA09155 at a Concentration of 12.5: 0.5 µg/mL
  Emax: 16
P. aeruginosa ATCC 27853; sum of the FICindex of antibiotic and TXA09155, <0.5 synergistic
  FICindex: 0.25
P. aeruginosa K767 (WT)
  MIC: 2 µg/mL (≈ 3.89 µM)
[2]
  MIC: 8 µg/mL (≈ 15.5 µM)
  MIC Ratios K1455 (↑mexAB-oprM) ± TXA09155: 8
[2]; antibiotic alone
  MIC Ratios K1455 (↑mexAB-oprM)/K3698 (∆oprM): 4
[3]
  MIC: 0.5 µg/mL
  MIC Ratios K3698 (∆oprM) ± TXA09155: 2
[4]
  MIC: 8 µg/mL
  MIC Ratios K2415 (↑mexXY-oprM) ± TXA09155: 8

## CN(C)c1cc(NC(=O)CNC(C)(C)C)c(O)c2c1C[C@H]1C[C@H]3[C@H](N(C)C)C(O)=C(C(N)=O)C(=O)[C@@]3(O)C(O)=C1C2=O [TGC, tigecycline]
P. aeruginosa ATCC 27853; ATCC 27853, parent strain
  MIC: 8 µg/mL
[1]; [5]
  MIC: 8 µg/mL
[1]; [7]
  MIC: 8 µg/mL

## C[C@H]1[C@H](NC(=O)/C(=N\OC(C)(C)C(=O)O)c2csc(N)n2)C(=O)N1S(=O)(=O)O [Aztreonam]
P. aeruginosa ATCC 27853; [8]
  MIC: 8 µg/mL
P. aeruginosa ATCC 27853
  Antibiotic MIC in Presence of TXA09155 at a Concentration of 3.13: 4 µg/mL
  Antibiotic MIC in Presence of TXA09155 at a Concentration of 25: 0.25 µg/mL
  Emax: 32

## C[C@H]1c2cccc(O)c2C(=O)C2=C(O)[C@]3(O)C(=O)C(C(N)=O)=C(O)[C@@H](N(C)C)[C@@H]3[C@@H](O)[C@@H]21 [Doxycycline]
P. aeruginosa ATCC 27853; [8]
  MIC: 32 µg/mL
P. aeruginosa ATCC 27853; [9]
  MIC: 32 µg/mL
P. aeruginosa ATCC 27853
  Antibiotic MIC in Presence of TXA09155 at a Concentration of 3.13: 16 µg/mL
P. aeruginosa K767 (WT)
  MIC: 32 µg/mL (≈ 72 µM)
[2]
  MIC: ≥ 256 µg/mL
[1]; [5]
  MIC: 16 µg/mL
[1]; [6]
  MIC: 16 µg/mL
[1]; [7]
  MIC: 16 µg/mL
[4]
  MIC: 32 µg/mL

## CC[C@H]1OC(=O)[C@H](C)[C@@H](O[C@H]2C[C@@](C)(OC)[C@@H](O)[C@H](C)O2)[C@H](C)[C@@H](O[C@@H]2O[C@H](C)C[C@H](N(C)C)[C@H]2O)[C@](C)(O)C[C@@H](C)CN(C)[C@H](C)[C@@H](O)[C@]1(C)O [AZM, azithromycin]
P. aeruginosa ATCC 27853; ATCC 27853, parent strain
  MIC: 64 µg/mL
[1]; [5]
  MIC: 64 µg/mL
[1]; [7]
  MIC: 64 µg/mL

## COc1c(N2C[C@@H]3CCCN[C@@H]3C2)c(F)cc2c(=O)c(C(=O)O)cn(C3CC3)c12 [Moxifloxacin]
P. aeruginosa ATCC 27853; [8]
  MIC: 2 µg/mL
P. aeruginosa ATCC 27853; [9]
  MIC: 2 µg/mL
P. aeruginosa ATCC 27853
  Antibiotic MIC in Presence of TXA09155 at a Concentration of 3.13: 2 µg/mL
  Antibiotic MIC in Presence of TXA09155 at a Concentration of 25: 0.016 µg/mL
  Antibiotic MIC in Presence of TXA09155 at a Concentration of 12.5: 0.031 µg/mL

## Cotrimoxazole
P. aeruginosa ATCC 27853; TXA09155 0 μg/mL
  Antibiotic MIC in Presence of TXA09155 at a Concentration of 0: 256 µg/mL
P. aeruginosa ATCC 27853
  Antibiotic MIC in Presence of TXA09155 at a Concentration of 3.13: 256 µg/mL
  Antibiotic MIC in Presence of TXA09155 at a Concentration of 25: 2 µg/mL
  Antibiotic MIC in Presence of TXA09155 at a Concentration of 12.5: 4 µg/mL
  Emax: 128
P. aeruginosa K767 (WT)
  MICs K767 (WT): 64 µg/mL
[2]; antibiotic alone
  MICs K1455 (↑mexAB-oprM): > 256 µg/mL
[3]; antibiotic alone
  MICs K3698 (∆oprM): 4 µg/mL
[4]; antibiotic alone
  MICs K2415 (↑mexXY-oprM): 64 µg/mL

## NCC[C@H](O)C(=O)N[C@@H]1C[C@H](N)[C@@H](O[C@H]2O[C@H](CN)[C@@H](O)[C@H](O)[C@H]2O)[C@H](O)[C@H]1O[C@H]1O[C@H](CO)[C@@H](O)[C@H](N)[C@H]1O [AMK, amikacin]
[1]; [5]
  MIC: 8 µg/mL
[1]; [7]
  MIC: 8 µg/mL

## CC(C)(O/N=C(\C(=O)N[C@@H]1C(=O)N2C(C(=O)[O-])=C(C[n+]3ccccc3)CS[C@H]12)c1csc(N)n1)C(=O)O [CAZ, ceftazidime]
P. aeruginosa ATCC 27853; ATCC 27853, parent strain
  MIC: 2 µg/mL
[1]; [5]
  MIC: 2 µg/mL
[1]; [7]
  MIC: 2 µg/mL

## O=C(N[C@H](CO)[C@H](O)c1ccc([N+](=O)[O-])cc1)C(Cl)Cl [Chloramphenicol]
P. aeruginosa ATCC 27853; [8]
  MIC: > 256 µg/mL
P. aeruginosa ATCC 27853; [9]
  MIC: > 256 µg/mL
P. aeruginosa ATCC 27853
  Antibiotic MIC in Presence of TXA09155 at a Concentration of 3.13: >256 µg/mL
  Antibiotic MIC in Presence of TXA09155 at a Concentration of 25: 2 µg/mL
  Antibiotic MIC in Presence of TXA09155 at a Concentration of 12.5: 4 µg/mL
  Emax: >128
P. aeruginosa K767 (WT)
  MIC: 128 µg/mL (≈ 396 µM)
[2]
  MIC: > 256 µg/mL
[3]
  MIC: 8 µg/mL
[4]
  MIC: 128 µg/mL

Source: paper PMC9220351, “Evaluation of a Conformationally Constrained Indole Carboxamide as a Potential Efflux Pump Inhibitor in Pseudomonas aeruginosa” (Antibiotics, 2022)
